Experimental data as given in patent US20050021241A1, “Gain of function sorting for drug discovery and development” (priority 2003, published 2005).

What was measured:
[1] = target: T1, S3.36 A variant of the 5HT2 A receptor (Homo sapiens, UniProt P28223, S159A); test: Ca2+i mobilization response (Indo-1, flow cytometry) of cells expressing variant serotonin receptor; type: cell-based
T1 construct: expressed in transfected cells
Excerpt: Step 1: To observe GOF behavior it is necessary to understand the range of compound concentration that activates the wild type receptor (WT). GOF variants will respond to concentrations of the test compound at least 5 fold lower than the minimal concentration that activates the WT. An illustration is shown in FIG. 18 where a dose-response curve for one null function mutant receptor (NF), the serotonin 2 A receptor (5 HT2 A) mutant 5.46, and the WT are shown in the lower graph. The two curves are virtually identical. […] At very low concentrations, only the GOF 3.36 mutant bearing cells are isolated, and the WT and NF 5.46 mutant are only selected as the compound concentration is raised to relatively high concentrations. It will also be necessary to understand the time kinetics of the WT response so that an appropriate time window (TW) region of the response can be selected for the analysis and sort.
FIG. 18 illustrates the results obtained during steps of GOF sorting of variant Human Serotonin Receptor Type 2A populations. Three populations of cells containing one of three versions of the human serotonin receptor type 2A were stained three distinct “colors” recognizable by the FACS. The populations were combined in equal proportions into one population. One mutant is the S3.36 A, the other mutant is the S5.46 A mutant and the third group is the wild type receptor (WT). The cells were also loaded with the Ca^2+i indicator dye, indol, so that receptor-mediated signaling events could be monitored through the Ca^2+i mobilization response. The combined population was stimulated with increasing concentrations of the test compound, naphthyl piperazine, and the percentage of cells within each colored subpopulation showing a threshold Ca^2+i response was quantified. […] The sorted cells were then re-analyzed to evaluate the subpopulation from which they were derived, based on the distinct “color” used to stain each subpopulation. The identity of the sorted populations that were taken from sorting at several different compound concentrations is shown in the bottom half of the figure. […] At the high and low ends of the concentration range there was no selective responsiveness by the S3.36 A variant cells, and the FACS selected each of the populations equally.
GOF sorting enhances drug discovery by providing the ability to identify in a few months the Gain of Function (GOF) receptor variants that normally took years to identify. It was hypothesized that GOF variants could be isolated efficiently from a pool of cells, each expressing a single variant, by sorting responding cells at low concentrations of agonist, using Fluorescence Activated Cell Sorting (FACS). […]

[2] = tested on: 5 HT2 A receptor cell lines; test: FACS sorting of responding cells from a mixture of three color-coded 5 HT2 A receptor cell lines (WT, S3.36 A, S5.46 A); type: cell-based, human
Excerpt: FIG. 18 illustrates the results obtained during steps of GOF sorting of variant Human Serotonin Receptor Type 2A populations. Three populations of cells containing one of three versions of the human serotonin receptor type 2A were stained three distinct “colors” recognizable by the FACS. The populations were combined in equal proportions into one population. One mutant is the S3.36 A, the other mutant is the S5.46 A mutant and the third group is the wild type receptor (WT). The cells were also loaded with the Ca^2+i indicator dye, indol, so that receptor-mediated signaling events could be monitored through the Ca^2+i mobilization response. The combined population was stimulated with increasing concentrations of the test compound, naphthyl piperazine, and the percentage of cells within each colored subpopulation showing a threshold Ca^2+i response was quantified. […] The sorted cells were then re-analyzed to evaluate the subpopulation from which they were derived, based on the distinct “color” used to stain each subpopulation. The identity of the sorted populations that were taken from sorting at several different compound concentrations is shown in the bottom half of the figure. […] At the high and low ends of the concentration range there was no selective responsiveness by the S3.36 A variant cells, and the FACS selected each of the populations equally. […]

T1 sequence (P28223 whole entry S159A): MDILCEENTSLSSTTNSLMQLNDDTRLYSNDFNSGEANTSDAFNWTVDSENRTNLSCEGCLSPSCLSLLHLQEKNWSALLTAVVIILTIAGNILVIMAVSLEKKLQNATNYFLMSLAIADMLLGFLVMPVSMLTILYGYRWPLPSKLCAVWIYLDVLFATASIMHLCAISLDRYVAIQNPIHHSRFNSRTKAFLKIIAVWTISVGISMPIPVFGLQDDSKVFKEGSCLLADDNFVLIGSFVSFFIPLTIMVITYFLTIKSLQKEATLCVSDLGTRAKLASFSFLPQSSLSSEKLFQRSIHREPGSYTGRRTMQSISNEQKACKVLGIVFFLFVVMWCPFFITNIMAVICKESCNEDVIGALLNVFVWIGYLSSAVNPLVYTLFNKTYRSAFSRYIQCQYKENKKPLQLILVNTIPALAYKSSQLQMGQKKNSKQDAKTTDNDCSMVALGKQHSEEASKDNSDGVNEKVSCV

## c1ccc2c(N3CCNCC3)cccc2c1 [Naphthyl Piperazine]
[1]; WT and S5.46 A variant not activated at this concentration
  agonist concentration at which cells expressing the S3.36 A variant were becoming activated: 3 nM
[1]; agonist dose-response, S3.36 A vs wild type or S5.46 A 5HT2 A receptor
  fold lower EC50 of S3.36 A variant than the wild type or the S5.46 A variant: 1,000 fold
[1]; mutant 3.36 vs WT, dose-response curve FIG. 18
  minimum concentration that activates the 3.36 mutant cells, fold lower than that required to activate the WT: more than 100 fold
[1]; percentage of cells showing a threshold Ca2+i response, increasing concentrations
  affinity of S3.36 A variant for the compound compared with S5.46 A and WT: greater affinity
[2]; 50-100 nM agonist concentration range
  share of GOF S3.36 A variant in the sorted population: 90%
[2]; FACS sort of responding cells, mixed pool of 3 cell lines
  agonist concentration range of selective sorting of GOF variant S3.36 A from wild type and S5.46 A: 10 to 300 nM
